Values after ≈ are worked out from the molar mass of the structure shown. Read-outs that look alike come from different tables or passages of the source. Each block holds one molecule with its values, some of them ahead of it.
Columns and labels:
[1] = test system: Aspergillus niger (ANIG); experiment: Minimum inhibitory concentration (MIC), broth two-fold serial dilution test; format: cell-based; details: Aspergillus niger, IIIB, trypticase soy broth (complex media); Table IIIb; read-out: MIC (F) ANIG
[2] = test system: Aureobasidium pullulans (APUL); experiment: as above; format: cell-based; details: Aureobasidium pullulans, IIIB, trypticase soy broth (complex media); Table IIIb; read-out: MIC (F) APUL
[3] = test system: MIXED COOLING TOWER ALGAE; experiment: MIC test against mixed cooling tower algae; format: cell-based, green algae and blue-green bacteria; details: Table VIII
Procedure: The algae culture contains green algae and blue-green bacteria, and is obtained from a cooling tower in Spring House, Pennsylvania. The algae culture is grown in Allen's medium on a rotary shaker under flourescent room lighting. This culture is further diluted with Allen's medium and then added to the test vessel.

[4] = test system: 8 FUNGI; experiment: Microbicides secondary test against 8 fungi on Mycophile Agar at pH 5.0 (Table VI); format: cell-based; set-up: key: 1= no growth; 0= growth of the indicated fungi at dose indicated in ppm; details: for ANIG growth: Aspergillus niger; for APUL growth: Aureobasidium pullulans; for CGLO growth: Chaetomium globosum; for CRES growth: Cladosporium resinae; for GTRA growth: Gloeophyllum trabeum; for PFUN growth: Penicillium funiculosum; for RRUB growth: Rhodotorula rubra; for SSER growth: Sacharomyces cerevisiae
Description: The results of the minimum inhibitory concentration (MIC) tests of compounds of this invention are shown in Tables IIIa IIIb, IIIc, V, VI, VII, and VIII against the microorganisms shown in Table IX.

[5] = test system: THREE FUNGI; experiment: MIC test against three fungi in Mycophile Broth, pH 5.0, read after 8 days (Table VII); format: cell-based; details: 192 h, serial dilutions from 50 ppm, read after 8 days of incubation
[6] = test system: Pseudomonas fluorescens (PSFL); experiment: Minimum inhibitory concentration (MIC), broth two-fold serial dilution test; details: Pseudomonas fluorescens, IIIB, read-out: MIC (G-) PSFL, trypticase soy broth (complex media); Table IIIb
[7] = test system: Pseudomonas aerugenosa (PSAE); experiment: as above; details: Pseudomonas, IIIB, read-out: MIC (G-) PSAE, trypticase soy broth (complex media); Table IIIb
[8] = test system: Escherichia coli (ECOL); experiment: as above; details: Escherichia coli, IIIB, read-out: MIC (G-) ECOL, trypticase soy broth (complex media); Table IIIb
[9] = test system: Staphylococcus aureus (SAUR); experiment: as above; details: Staphylococcus aureus, IIIB, read-out: MIC (G+) SAUR, trypticase soy broth (complex media); Table IIIb
[10] = Aspergillus niger, read-out: MIC ANIG
[11] = Aureobasidium pullulans, read-out: MIC APUL
[12] = Gloeophyllum trabeum, read-out: MIC GTRA

MIC [1]: 2 µg/mL (≈ 7.49 µM)
MIC [2]: 8 µg/mL (≈ 30 µM)
MIC [5, 10]: 12.5 µg/mL (≈ 46.8 µM)
MIC [5, 11]: 25 µg/mL (≈ 93.6 µM)
MIC [5, 12]: 3.2 µg/mL (≈ 12 µM)
MIC [6]: 32 µg/mL (≈ 120 µM)
MIC [7]: 63 µg/mL (≈ 236 µM)
MIC [8]: 63 µg/mL (≈ 236 µM)
MIC [9]: 63 µg/mL (≈ 236 µM)
SMILES: O=CNCC(=O)OCC#CI [Compound 32, N-formylglycine iodopropargyl ester]
MIC [3]: 6.2 µg/mL (≈ 23.2 µM)
ANIG growth ([4]; 0.2 PPM): 0
ANIG growth ([4]; 1.0 PPM): 0
ANIG growth ([4]; 2.5 PPM): 0
ANIG growth ([4]; 25 PPM): 1
APUL growth ([4]; 0.2 PPM): 0
APUL growth ([4]; 1.0 PPM): 0
APUL growth ([4]; 2.5 PPM): 0
APUL growth ([4]; 25 PPM): 1
CGLO growth ([4]; 0.2 PPM): 0
CGLO growth ([4]; 1.0 PPM): 0
CGLO growth ([4]; 2.5 PPM): 0
CGLO growth ([4]; 25 PPM): 1
CRES growth ([4]; 0.2 PPM): 0
CRES growth ([4]; 1.0 PPM): 0
CRES growth ([4]; 2.5 PPM): 0
CRES growth ([4]; 25 PPM): 1
GTRA growth ([4]; 0.2 PPM): 0
GTRA growth ([4]; 1.0 PPM): 0
GTRA growth ([4]; 2.5 PPM): 0
GTRA growth ([4]; 25 PPM): 1
PFUN growth ([4]; 0.2 PPM): 0
PFUN growth ([4]; 1.0 PPM): 0
PFUN growth ([4]; 2.5 PPM): 0
PFUN growth ([4]; 25 PPM): 1
RRUB growth ([4]; 0.2 PPM): 0
RRUB growth ([4]; 1.0 PPM): 0
RRUB growth ([4]; 2.5 PPM): 0
RRUB growth ([4]; 25 PPM): 1
SSER growth ([4]; 0.2 PPM): 0
SSER growth ([4]; 1.0 PPM): 0
SSER growth ([4]; 2.5 PPM): 0
SSER growth ([4]; 25 PPM): 1

MIC [1]: < 0.12 µg/mL
MIC [2]: 8 µg/mL (≈ 21.9 µM)
MIC [5, 10]: 1.6 µg/mL (≈ 4.38 µM)
MIC [5, 11]: 12.5 µg/mL (≈ 34.2 µM)
MIC [5, 12]: 3.2 µg/mL (≈ 8.76 µM)
MIC [6]: 63 µg/mL (≈ 173 µM)
MIC [7]: 125 µg/mL (≈ 342 µM)
MIC [8]: > 250 µg/mL
MIC [9]: 250 µg/mL (≈ 685 µM)
SMILES: CCCCCCCC(=O)NCC(=O)OCC#CI [Compound 34, N-octanoylglycine iodopropargyl ester]
MIC [3]: 12.5 µg/mL (≈ 34.2 µM)
ANIG growth ([4]; 0.2 PPM): 0
ANIG growth ([4]; 1.0 PPM): 1
ANIG growth ([4]; 2.5 PPM): 1
ANIG growth ([4]; 25 PPM): 1
APUL growth ([4]; 0.2 PPM): 0
APUL growth ([4]; 1.0 PPM): 0
APUL growth ([4]; 2.5 PPM): 0
APUL growth ([4]; 25 PPM): 1
CGLO growth ([4]; 0.2 PPM): 0
CGLO growth ([4]; 1.0 PPM): 1
CGLO growth ([4]; 2.5 PPM): 0
CGLO growth ([4]; 25 PPM): 1
CRES growth ([4]; 0.2 PPM): 0
CRES growth ([4]; 1.0 PPM): 0
CRES growth ([4]; 2.5 PPM): 0
CRES growth ([4]; 25 PPM): 1
GTRA growth ([4]; 0.2 PPM): 0
GTRA growth ([4]; 1.0 PPM): 1
GTRA growth ([4]; 2.5 PPM): 1
GTRA growth ([4]; 25 PPM): 1
PFUN growth ([4]; 0.2 PPM): 0
PFUN growth ([4]; 1.0 PPM): 0
PFUN growth ([4]; 2.5 PPM): 1
PFUN growth ([4]; 25 PPM): 1
RRUB growth ([4]; 0.2 PPM): 0
RRUB growth ([4]; 1.0 PPM): 0
RRUB growth ([4]; 2.5 PPM): 0
RRUB growth ([4]; 25 PPM): 1
SSER growth ([4]; 0.2 PPM): 0
SSER growth ([4]; 1.0 PPM): 0
SSER growth ([4]; 2.5 PPM): 0
SSER growth ([4]; 25 PPM): 1

MIC [1]: 2 µg/mL (≈ 6 µM)
MIC [2]: 4 µg/mL (≈ 12 µM)
MIC [5, 10]: 1.6 µg/mL (≈ 4.8 µM)
MIC [5, 11]: 6.2 µg/mL (≈ 18.6 µM)
MIC [5, 12]: 0.4 µg/mL (≈ 1.2 µM)
MIC [6]: 63 µg/mL (≈ 189 µM)
MIC [7]: 125 µg/mL (≈ 375 µM)
MIC [8]: 125 µg/mL (≈ 375 µM)
MIC [9]: 63 µg/mL (≈ 189 µM)
SMILES: C/C=C/C=C/C(=O)NCC(=O)OCC#CI [Compound 35, N-sorbylglycine iodopropargyl ester]
MIC [3]: 6.2 µg/mL (≈ 18.6 µM)
ANIG growth ([4]; 0.2 PPM): 0
ANIG growth ([4]; 1.0 PPM): 1
ANIG growth ([4]; 2.5 PPM): 1
ANIG growth ([4]; 25 PPM): 1
APUL growth ([4]; 0.2 PPM): 0
APUL growth ([4]; 1.0 PPM): 0
APUL growth ([4]; 2.5 PPM): 0
APUL growth ([4]; 25 PPM): 1
CGLO growth ([4]; 0.2 PPM): 0
CGLO growth ([4]; 1.0 PPM): 1
CGLO growth ([4]; 2.5 PPM): 1
CGLO growth ([4]; 25 PPM): 1
CRES growth ([4]; 0.2 PPM): 0
CRES growth ([4]; 1.0 PPM): 0
CRES growth ([4]; 2.5 PPM): 0
CRES growth ([4]; 25 PPM): 1
GTRA growth ([4]; 0.2 PPM): 0
GTRA growth ([4]; 1.0 PPM): 1
GTRA growth ([4]; 2.5 PPM): 1
GTRA growth ([4]; 25 PPM): 1
PFUN growth ([4]; 0.2 PPM): 0
PFUN growth ([4]; 1.0 PPM): 0
PFUN growth ([4]; 2.5 PPM): 1
PFUN growth ([4]; 25 PPM): 1
RRUB growth ([4]; 0.2 PPM): 0
RRUB growth ([4]; 1.0 PPM): 0
RRUB growth ([4]; 2.5 PPM): 1
RRUB growth ([4]; 25 PPM): 1
SSER growth ([4]; 0.2 PPM): 0
SSER growth ([4]; 1.0 PPM): 0
SSER growth ([4]; 2.5 PPM): 0
SSER growth ([4]; 25 PPM): 1

From EP0414533A1, “Use of iodopropargyl esters of alpha-amino acid derivatives as antimicrobial agents” (ROHM AND HAAS COMPANY, priority 1989, dated 1991)
